Measured values taken from patent US11149013B2, “Crystal form of urate transporter 1 inhibitor and preparation method and use thereof” (Tianjin Institute of Pharmaceutical Research Co., Ltd., priority 2018, dated 2021).

Experiments:
Type in all cases: physicochemical
[1] = Influencing factor test: stability to high humidity; conditions: high humidity 92.5% RH, open weighing bottle
Experimental: (§1) The HPLC conditions for the determination of the crystal form A of the compound TY706 and its raw material in the present invention were as follows: chromatographic column: C18, 5 μu, Φ4.6×150 mm, Waters Atlantis T3; mobile phase A: acetonitrile-methanol=9:1, mobile phase B: 10 mM diammonium hydrogen phosphate (pH was adjusted to 4.30±0.03 with phosphoric acid), gradient elution (Table 2); detection wavelength: 225 nm; column temperature: 35° C.; flow rate: 1.0 mL/min; sample concentration: 0.3 mg/mL; injection volume: 15 μL; solvent for dissolving: phosphate buffer (pH 7.8-8.0; prepared by dissolving 5.59 g of dipotassium hydrogen phosphate and 0.41 g of potassium dihydrogen phosphate by adding water to a volume of 1000 mL).
(§2) The sample of the crystal form A of TY706 prepared in Example 1 and the raw material for the preparation of the crystal form A were simultaneously subjected to influencing factor tests, and they were respectively placed under the conditions of illumination (5000 Lx·hr, with the weighing bottle being placed open), high heat (60° C., with the weighing bottle being placed open), and high humidity (92.5% RH, with the weighing bottle being placed open) for 14 days, and the appearance and the number and total amount of impurities (determined by HPLC) were compared with those measured on day 0, and the results are shown in Table 5-7.

[2] = Influencing factor test: stability to high heat; conditions: high heat 60° C., open weighing bottle
Experimental: as §1, §2

[3] = Influencing factor test: stability to light; conditions: illumination 5000 Lx·hr, open weighing bottle
Experimental: as §1, §2

SMILES | Appearance ([1]; day 0) | Number of impurities ([1]; day 0, HPLC) | Total amount of impurities ([1]; day 0, HPLC) [%] | Appearance ([1]; day 7) | Number of impurities ([1]; day 7, HPLC) | Total amount of impurities ([1]; day 7, HPLC) [%] | Appearance ([1]; day 14) | Number of impurities ([1]; day 14, HPLC) | Total amount of impurities ([1]; day 14, HPLC) [%] | Appearance ([2]; day 0) | Number of impurities ([2]; day 0, HPLC) | Total amount of impurities ([2]; day 0, HPLC) [%] | Appearance ([2]; day 7) | Number of impurities ([2]; day 7, HPLC) | Total amount of impurities ([2]; day 7, HPLC) [%] | Appearance ([2]; day 14) | Number of impurities ([2]; day 14, HPLC) | Total amount of impurities ([2]; day 14, HPLC) [%] | Appearance ([3]; day 0) | Number of impurities ([3]; day 0, HPLC) | other results
O=C(O)CSc1nnc(Br)n1Cc1ccc(Br)c2ccccc12 [Crystal form A of TY706] | White solid | 4 | 0.24 | White solid | 4 | 0.24 | White solid | 4 | 0.25 | White solid | 4 | 0.24 | White solid | 4 | 0.25 | White solid | 5 | 0.26 | White solid | 4 | Total amount of impurities ([3]; day 0, HPLC): 0.24%; Appearance ([3]; day 7): White solid; Number of impurities ([3]; day 7, HPLC): 6; Total amount of impurities ([3]; day 7, HPLC): 0.28%; Appearance ([3]; day 14): White solid; Number of impurities ([3]; day 14, HPLC): 7; Total amount of impurities ([3]; day 14, HPLC): 0.41%
O=C(O)CSc1nnc(Br)n1Cc1ccc(Br)c2ccccc12 [TY706 raw material] | White solid | 11 | 0.69 | White solid | 12 | 0.72 | White solid | 14 | 0.84 | White solid | 11 | 0.69 | White solid | 12 | 0.78 | White solid | 15 | 1.19 | White solid | 11 | Total amount of impurities ([3]; day 0, HPLC): 0.69%; Appearance ([3]; day 7): White solid; Number of impurities ([3]; day 7, HPLC): 13; Total amount of impurities ([3]; day 7, HPLC): 1.13%; Appearance ([3]; day 14): Light yellow; Number of impurities ([3]; day 14, HPLC): 25; Total amount of impurities ([3]; day 14, HPLC): 2.68%
